Measured values published in patent US11913020B2, “Method for improving stem cell migration using ethionamide” (Samsung Life Public Welfare Foundation, priority 2017, dated 2024).

Assays:
CXCR4 = details: treated with ethionamide for 72 hours; compared with stem cells not treated (Control)
Experimental: To this end, the human mesenchymal stem cells prepared according to the method described in Example 1 were treated with ethionamide for 72 hours, and then lysed with TRIzol (Ambion, USA). Subsequently, following the addition of chloroform (Sigma Aldrich, USA) and centrifugation, only a supernatant was transferred to a new tube, treated with isopropanol (Amresco, USA), and centrifuged to precipitate RNA. Afterward, the precipitated RNA was treated with 75% ethanol (Merck Millipore, USA) for washing, and the completely dried RNA was dissolved in DEPC water (Biosesang, Korea). 5 μg of RNA extracted from the human mesenchymal stem cells treated or not treated with ethionamide by the above-described method was used for cDNA synthesis, and here, for the cDNA synthesis, a cDNA synthesis kit (Invitrogen, USA) was used. Afterward, 10 pM of a primer (Bioneer, Korea) specific for CXCR4, which is a gene related to stem cell migration, and a SYBR green master mix (Applied Biosystems, USA) were added to the synthesized cDNA, and cDNA was amplified using a real time-PCR device (Applied Biosystems, USA), followed by assessment of the amplified result to measure an initial amount of cDNA.

[1] = test system: human umbilical cord mesenchymal stem cells; details: ethionamide 10 or 100 μM, 24 hours incubation; scratch observed after 14 hours; compared to control not treated
Experimental: To this end, human umbilical cord mesenchymal stem cells (5×10^4 cells) prepared according to the method described in Example 1 were dispensed into a 6-well plate, and simultaneously treated with ethionamide at 10 or 100 μM, followed by incubation for 24 hours. Subsequently, to inhibit cell proliferation, the cells were treated with mitomycin C at 10 μg/mL to allow a reaction for 2 hours, a scratch was made on the plate using a tip, followed by exchanging the medium with a fresh medium.

[2] = test system: human umbilical cord mesenchymal stem cells; details: ethionamide 10 or 100 μM, 24 hours incubation; compared to control not treated
Experimental: To this end, the human umbilical cord mesenchymal stem cells (5×10^4 cells) prepared by the method described in Example 1 were dispensed into a Transwell plate (Costar, USA) with an 8.0 μm pore size, and treated with ethionamide at 10 or 100 μM, followed by incubation for 24 hours. Subsequently, the cells were fixed with 4% paraformaldehyde and stained with hematoxylin, the inner side of the Transwell was wiped with a cotton tip, and then the number of cells present on the bottom surface of the Transwell was measured using a microscope.

For `CCc1cc(C(N)=S)ccn1` [ethionamide, 2-ethylpyridine-4-carbothioamide], the “expression level of the CXCR4 gene” value (CXCR4) was “at least 4 fold”, the “migration ability of human mesenchymal stem cells (number of migrating stem cells)” value [1] was “significantly increased” and the “invasion ability of human mesenchymal stem cells (number of cells on bottom surface of Transwell)” value [2] was “significantly increased”.
